Experimental findings from patent publication US10301267B2, “Compounds” (AstraZeneca AB, priority 2006, dated 2019) are described below.

This test concerns the target T1, transiently expressed FGFR1 IIIc in Cos-1 cells (Homo sapiens, UniProt P11362).
T1 construct: The clone was full-length, wild-type FGFR1 IIIc isoform; host or cells: Cos-1
Description: Cell FGFR1 - cell based inhibition of transiently expressed FGFR1 IIIc phosphorylation. The conditions noted are these: phospho-FGFR1. An excerpt: Cell FGFR1—Cell Based Inhibition of Transiently Expressed FGFR1 IIIc Phosphorylation (Measured Using Phospho-Specific Primary and Fluorescent Secondary Antibodies).
This assay is designed to detect inhibitors of transiently expressed FGFR1 phosphorylation by antibody staining of fixed cells detected using ArrayScan technology. (For a description of Array Scan technology see http://www.cellomics.com/content/menu/Arrayscan/)
Cos-1 cells were routinely passaged in DMEM (Gibco BRL, 41966) plus 3% foetal calf serum (FCS), 1% L-glutamine (Gibco BRL, 25030) to a confluence of 80%. To undertake the assay, Cos-1 cells were harvested at 90-95% confluence for cell transfection. […]
The harvested Cos-1 cells are counted using a coulter counter and diluted further with 1% FCS/DMEM to 2.5×10^5 cells/ml. […]
Following incubation at room temperature for 1 hour, the antibody solution was removed and the wells were washed once with 200 ul/well PBS/A. Then 40 μl 1/500 secondary antibody (A111005; goat anti-mouse 594) solution and 1/10000 Hoechst (diluted together in PBS/A with 10% FCS+0.1% Tween 20) were added and the plate incubated in the dark at room temperature for one hour. […] The plates were read on an Arrayscan (Cellomics). […]

T1 sequence (P11362 22-822): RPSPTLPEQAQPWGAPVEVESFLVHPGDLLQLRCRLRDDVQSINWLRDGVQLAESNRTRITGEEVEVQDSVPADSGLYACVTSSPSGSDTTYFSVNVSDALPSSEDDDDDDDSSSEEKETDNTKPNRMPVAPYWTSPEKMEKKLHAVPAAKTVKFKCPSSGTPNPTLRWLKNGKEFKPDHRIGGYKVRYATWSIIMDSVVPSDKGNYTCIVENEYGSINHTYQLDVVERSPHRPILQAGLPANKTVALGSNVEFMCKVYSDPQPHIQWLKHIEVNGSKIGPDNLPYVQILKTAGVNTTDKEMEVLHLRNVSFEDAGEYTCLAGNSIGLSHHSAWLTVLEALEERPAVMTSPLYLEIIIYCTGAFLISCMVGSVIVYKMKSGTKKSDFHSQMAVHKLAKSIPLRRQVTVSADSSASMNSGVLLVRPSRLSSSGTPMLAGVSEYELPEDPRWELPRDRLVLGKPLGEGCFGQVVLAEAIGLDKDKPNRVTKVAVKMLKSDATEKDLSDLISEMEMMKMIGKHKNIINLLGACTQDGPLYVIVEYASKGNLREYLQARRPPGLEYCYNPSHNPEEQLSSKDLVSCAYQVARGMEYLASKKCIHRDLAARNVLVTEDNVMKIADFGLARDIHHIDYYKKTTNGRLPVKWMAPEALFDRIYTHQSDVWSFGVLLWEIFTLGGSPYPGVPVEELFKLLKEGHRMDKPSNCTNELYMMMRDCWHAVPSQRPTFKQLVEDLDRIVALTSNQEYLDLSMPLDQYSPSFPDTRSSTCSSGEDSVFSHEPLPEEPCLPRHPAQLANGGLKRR

Broadly, the IC50 is the point on the concentration scale where inhibition reaches its midpoint. Low readings indicate greater potency in that assay, high ones weaker potency in that assay. `COc1cc(CCc2cc(NC(=O)c3ccc(CC(C)N)cc3)n[nH]2)cc(OC)c1` (centres unmarked) [Example 49, 4-(2-Aminopropyl)-N-[5-[2-(3,5-dimethoxyphenyl)ethyl]-1H-pyrazol-3-yl]benzamide] gave a concentration for half-maximal inhibition (IC50) of 1470 nM.

In turn, `COc1cc(CCc2cc(NC(=O)c3ccc(OCCN4CCC(F)(F)CC4)cc3)n[nH]2)cc(OC)c1` [Example 55, 4-[2-(4,4-Difluoro-1-piperidyl)ethoxy]-N-[5-[2-(3,5-dimethoxyphenyl)ethyl]-1H-pyrazol-3-yl]benzamide] returned a concentration for half-maximal inhibition (IC50) of 460 nM.
